Assay results: ChEMBL document CHEMBL1157784, “Antitumor activity and COMPARE analysis of bis-indole derivatives” (Bioorg Med Chem, 2010)
Structures can show the parent of a compound that is named as a salt.

How the values were obtained:
Format in all cases: functional
[1] = Growth inhibition of human leukemia cell by NCI-CLS assay
[2] = system: NSCLC; experiment: Growth inhibition of human NSCLC cell by NCI-CLS assay
[3] = Growth inhibition of human colon cancer cell by NCI-CLS assay; conditions: Cancer cell lines
[4] = Growth inhibition of human CNS cancer cell by NCI-CLS assay; conditions: Cancer cell lines; for CC50: read-out: LC50 (the source's name)
[5] = Growth inhibition of human melanoma cell by NCI-CLS assay; conditions: for CC50: read-out: LC50 (the source's name)
[6] = Growth inhibition of human ovarian cancer cell by NCI-CLS assay; conditions: Cancer cell lines; for CC50: read-out: LC50 (the source's name)
[7] = Growth inhibition of human renal cancer cell by NCI-CLS assay; conditions: Cancer cell lines; for CC50: read-out: LC50 (the source's name)
[8] = Growth inhibition of human prostate cancer cell by NCI-CLS assay; conditions: Cancer cell lines; for CC50: read-out: LC50 (the source's name)
[9] = Growth inhibition of human breast cancer cell by NCI-CLS assay; conditions: Cancer cell lines; for CC50: read-out: LC50 (the source's name)

Question: With `CC[C@]1(O)C[C@H]2CN(CCc3c([nH]c4ccccc34)[C@@](C(=O)OC)(c3cc4c(cc3OC)N(C=O)[C@H]3[C@@](O)(C(=O)OC)[C@H](OC(C)=O)[C@]5(CC)C=CCN6CC[C@]43[C@@H]65)C2)C1` [VINCRISTINE SULFATE] as the compound, how does the GI50 [1] read?
Answer: The GI50 was 0.1 µM.

Question: What about the TGI [1] of the same compound?
Answer: Its TGI is 15.8 µM.

Question: And the GI50 [2]?
Answer: The GI50 was 0.2 µM.

Question: And the TGI [2]?
Answer: Its TGI is 15.8 µM.

Question: And the GI50 [3]?
Answer: The GI50 was 0.1 µM.

Question: What about the TGI [3] of the same compound?
Answer: Its TGI is 4 µM.

Question: And the GI50 [4]?
Answer: The GI50 was 0.1 µM.

Question: What about the TGI [4] of the same compound?
Answer: Its TGI is 6.3 µM.

Question: And the GI50 [5]?
Answer: Its GI50 is 0.2 µM.

Question: What about the TGI [5] of the same compound?
Answer: The TGI was 7.9 µM.

Question: And the GI50 [6]?
Answer: Its GI50 is 0.3 µM.

Question: What about the TGI [6] of the same compound?
Answer: The TGI was 19.9 µM.

Question: What about the GI50 [7] of the same compound?
Answer: The GI50 was 0.3 µM.

Question: And the TGI [7]?
Answer: Its TGI is 19.9 µM.

Question: What about the GI50 [8] of the same compound?
Answer: Its GI50 is 0.1 µM.

Question: What about the TGI [8] of the same compound?
Answer: The TGI was 6.3 µM.

Question: And the GI50 [9]?
Answer: The GI50 was 0.3 µM.

Question: What about the TGI [9] of the same compound?
Answer: The TGI was 7.9 µM.

Question: What does the source list for `COc1ccc2c(c1)/C(=C\c1cc(C(C)(C)C)cc(/C=C3/C(=O)Nc4ccc(OC)cc43)c1O)C(=O)N2`?
Answer: GI50 [1]: 3.9 µM; TGI [1]: 43.6 µM; GI50 [2]: 8.7 µM; LC50 [2]: 69.2 µM; TGI [2]: 32.4 µM; GI50 [3]: 6.3 µM; LC50 [3]: 53.7 µM; TGI [3]: 19.9 µM; GI50 [4]: 4.8 µM; TGI [4]: 21.4 µM; CC50 [4]: 66.1 µM; GI50 [5]: 4.4 µM; TGI [5]: 13.2 µM; CC50 [5]: 39.8 µM; GI50 [6]: 5.9 µM; TGI [6]: 25.1 µM; CC50 [6]: 61.7 µM; GI50 [7]: 7.2 µM; TGI [7]: 22.4 µM; CC50 [7]: 61.7 µM; GI50 [8]: 4.8 µM; TGI [8]: 24.5 µM; CC50 [8]: 72.4 µM; GI50 [9]: 5.5 µM; TGI [9]: 31.6 µM; CC50 [9]: 63.1 µM

Question: Which GI50 [1] does the source give for `CC(C)(C)c1cc(/C=C2/C(=O)Nc3cccc(Cl)c32)c(O)c(/C=C2/C(=O)Nc3cccc(Cl)c32)c1` here?
Answer: Its GI50 is 2.8 µM.

Question: And the TGI [1]?
Answer: Its TGI is 46.8 µM.

Question: And the GI50 [2]?
Answer: Its GI50 is 3.5 µM.

Question: And the LC50 [2]?
Answer: The LC50 was 64.6 µM.

Question: What about the TGI [2] of the same compound?
Answer: Its TGI is 15.1 µM.

Question: And the GI50 [3]?
Answer: The GI50 was 2.2 µM.

Question: What about the LC50 [3] of the same compound?
Answer: The LC50 was 21.9 µM.

Question: And the TGI [3]?
Answer: The TGI was 6.2 µM.

Question: What about the GI50 [4] of the same compound?
Answer: The GI50 was 2.3 µM.

Question: And the TGI [4]?
Answer: Its TGI is 11 µM.

Question: And the CC50 [4]?
Answer: The CC50 was 58.9 µM.

Question: What about the GI50 [5] of the same compound?
Answer: The GI50 was 2.9 µM.

Question: What about the TGI [5] of the same compound?
Answer: Its TGI is 9.3 µM.

Question: And the CC50 [5]?
Answer: Its CC50 is 36.3 µM.

Question: And the GI50 [6]?
Answer: Its GI50 is 2.2 µM.

Question: And the TGI [6]?
Answer: Its TGI is 15.8 µM.

Question: And the CC50 [6]?
Answer: Its CC50 is 44.7 µM.

Question: And the GI50 [7]?
Answer: Its GI50 is 3.6 µM.

Question: And the TGI [7]?
Answer: The TGI was 15.8 µM.

Question: And the CC50 [7]?
Answer: Its CC50 is 56.2 µM.

Question: What about the GI50 [8] of the same compound?
Answer: Its GI50 is 2.2 µM.

Question: And the TGI [8]?
Answer: The TGI was 10.2 µM.

Question: What about the CC50 [8] of the same compound?
Answer: The CC50 was 72.4 µM.

Question: And the GI50 [9]?
Answer: The GI50 was 2.4 µM.

Question: What about the TGI [9] of the same compound?
Answer: The TGI was 11.5 µM.

Question: What about the CC50 [9] of the same compound?
Answer: The CC50 was 67.6 µM.

Question: With `COc1ccc2c(c1)/C(=C\c1ccc3ccc4ccc(/C=C5/C(=O)Nc6ccc(OC)cc65)nc4c3n1)C(=O)N2` as the compound, how does the GI50 [1] read?
Answer: Its GI50 is 3 µM.

Question: And the TGI [1]?
Answer: The TGI was 60.3 µM.

Question: What about the GI50 [2] of the same compound?
Answer: The GI50 was 3.2 µM.

Question: What about the LC50 [2] of the same compound?
Answer: Its LC50 is 75.9 µM.

Question: What about the TGI [2] of the same compound?
Answer: Its TGI is 28.2 µM.

Question: What about the GI50 [3] of the same compound?
Answer: Its GI50 is 2.8 µM.

Question: What about the TGI [3] of the same compound?
Answer: Its TGI is 16.2 µM.

Question: And the GI50 [4]?
Answer: Its GI50 is 3.8 µM.

Question: What about the GI50 [5] of the same compound?
Answer: The GI50 was 3.2 µM.

Question: And the TGI [5]?
Answer: Its TGI is 11.5 µM.

Question: And the CC50 [5]?
Answer: The CC50 was 74.1 µM.

Question: What about the GI50 [6] of the same compound?
Answer: The GI50 was 5.5 µM.

Question: What about the TGI [6] of the same compound?
Answer: The TGI was 58.9 µM.

Question: And the GI50 [7]?
Answer: The GI50 was 3.3 µM.

Question: What about the TGI [7] of the same compound?
Answer: The TGI was 19.5 µM.

Question: What about the CC50 [7] of the same compound?
Answer: Its CC50 is 97.7 µM.

Question: What about the GI50 [8] of the same compound?
Answer: Its GI50 is 3.7 µM.

Question: What about the TGI [8] of the same compound?
Answer: The TGI was 36.3 µM.

Question: And the GI50 [9]?
Answer: Its GI50 is 3.9 µM.

Question: And the TGI [9]?
Answer: The TGI was 75.9 µM.

Question: For `O=C1Nc2c(ccc3ccccc23)/C1=C\c1cccc(/C=C2/C(=O)Nc3c2ccc2ccccc32)n1`, which GI50 [1] is on record?
Answer: The GI50 was 1.5 µM.

Question: What about the LC50 [1] of the same compound?
Answer: Its LC50 is 77.6 µM.

Question: What about the TGI [1] of the same compound?
Answer: Its TGI is 10 µM.

Question: What about the GI50 [2] of the same compound?
Answer: Its GI50 is 24 µM.

Question: What about the LC50 [2] of the same compound?
Answer: Its LC50 is 89.1 µM.

Question: And the TGI [2]?
Answer: The TGI was 57.5 µM.

Question: And the GI50 [3]?
Answer: Its GI50 is 14.4 µM.

Question: And the LC50 [3]?
Answer: The LC50 was 83.2 µM.

Question: What about the TGI [3] of the same compound?
Answer: The TGI was 44.7 µM.

Question: And the GI50 [4]?
Answer: Its GI50 is 15.8 µM.

Question: What about the TGI [4] of the same compound?
Answer: Its TGI is 49 µM.

Question: What about the CC50 [4] of the same compound?
Answer: Its CC50 is 85.1 µM.

Question: What about the GI50 [5] of the same compound?
Answer: The GI50 was 13.8 µM.

Question: What about the TGI [5] of the same compound?
Answer: Its TGI is 38 µM.

Question: What about the CC50 [5] of the same compound?
Answer: The CC50 was 77.6 µM.

Question: And the GI50 [6]?
Answer: Its GI50 is 19 µM.

Question: What about the TGI [6] of the same compound?
Answer: Its TGI is 56.2 µM.

Question: And the CC50 [6]?
Answer: Its CC50 is 91.2 µM.

Question: And the GI50 [7]?
Answer: Its GI50 is 17 µM.

Question: And the TGI [7]?
Answer: The TGI was 41.7 µM.

Question: And the CC50 [7]?
Answer: Its CC50 is 79.4 µM.

Question: What about the GI50 [8] of the same compound?
Answer: The GI50 was 21.9 µM.

Question: What about the TGI [8] of the same compound?
Answer: The TGI was 81.3 µM.

Question: What about the GI50 [9] of the same compound?
Answer: Its GI50 is 17.8 µM.

Question: What about the TGI [9] of the same compound?
Answer: Its TGI is 69.2 µM.

Question: What about the CC50 [9] of the same compound?
Answer: Its CC50 is 97.7 µM.
